Measured values from US12371454B2, “Cyclic peptide compound having Kras inhibitory action” (priority 2019, dated 2025).
Starred links: 1 amine or outer side, 2 acyl side, 3 side chain; linkers in the order of their positions; H or OH if unused. Positions of bridges follow the written chain, without caps; N, C: chain ends. Non-standard residues stand in square brackets, D forms with d. Residues, ends and D or L forms follow the SMILES beside them. *: point of attachment. hPhe(3-Cl-4-CF3) = N[C@@H](CCc1ccc(C(F)(F)F)c(Cl)c1)C(=O)O; X28 = CCCCOc1cc(CC[C@H](N[*:1])C(=O)[*:2])cc(Cl)c1Cl; NMePhe(4-CF3) = CN[C@@H](Cc1ccc(C(F)(F)F)cc1)C(=O)O; NEtPhe(4-Me) = CCN[C@@H](Cc1ccc(C)cc1)C(=O)O; NMePhe(3-Me) = CN[C@@H](Cc1cccc(C)c1)C(=O)O; NMePhe(4-Me) = CN[C@@H](Cc1ccc(C)cc1)C(=O)O; NMeGly(cPent) = CN[C@H](C(=O)O)C1CCCC1; NMe4Pal = CN[C@@H](Cc1ccncc1)C(=O)O; NMeCha = CN[C@@H](CC1CCCCC1)C(=O)O; NMeChg = CN[C@H](C(=O)O)C1CCCCC1; NMeI = CC[C@H](C)[C@H](NC)C(=O)O; NMeD = CN[C@@H](CC(=O)O)C(=O)O; NMeL = CN[C@@H](CC(C)C)C(=O)O; NMeV = CN[C@H](C(=O)O)C(C)C; d(β3hA) = C[C@@H](N)CC(=O)O; Iva = CC[C@](C)(N)C(=O)O; NMeA = CN[C@@H](C)C(=O)O; Piperidide = C1CCN(*)CC1; Pyrrolidide = C1CCN(*)C1; Ac5c = NC1(C(=O)O)CCCC1; Aze = O=C(O)[C@@H]1CCN1; Sar = CNCC(=O)O

Tests used:
[1] = molecular target: T1, Kras and SOS1 (biotin-tagged human Kras loaded with GDP, His-tagged human SOS1) (Homo sapiens, UniProt P01116, G12D); assay: Protein-protein interaction inhibition between Kras and SOS1 (KrasGl2D-SOS PPI) using AlphaScreen; type: binding; details: AlphaScreen; biotin-tagged human Kras loaded with GDP, His-tagged human SOS1; read-out: KRAS G12D-SOS PPI IC50
T1 construct: made in house; host or cells: E. coli (stated for Kras only)
In short: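 Energy transfer from nickel-chelate donor beads bound to His-SOS1 to streptavidin acceptor beads bound to biotin-Kras, expressed in E. coli and loaded with GDP after purification, was monitored. Donors were excited at 680 nm; singlet oxygen reaching acceptors gave emission read at 520-620 nm.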

[2] = test system: Human pancreatic cancer cell line AsPC-1; assay: Measurement of AsPC-1 cell growth inhibition (AsPC-1 CGI); type: cell-based; details: 96 h
In short: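 AsPC-1 cells in 15% FBS RPMI-1640 were exposed to test compound for 96 hours at 37° C, with CellTiter-Glo as endpoint.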

T1 sequence (P01116 1-188 isoform P01116-2 G12D): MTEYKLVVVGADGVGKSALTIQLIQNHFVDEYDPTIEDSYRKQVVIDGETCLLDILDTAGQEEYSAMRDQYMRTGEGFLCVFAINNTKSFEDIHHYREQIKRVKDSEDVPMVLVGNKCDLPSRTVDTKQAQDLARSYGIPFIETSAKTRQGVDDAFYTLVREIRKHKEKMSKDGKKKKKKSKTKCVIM

| Compound | IC50 [1] [nM] | IC50 [2] [nM] |
| --- | --- | --- |
| CC[C@H](C)[C@@H]1NC(=O)[C@H](CC(C)C)N(C)C(=O)C[C@@H](C(=O)N(C)C)N(C)C(=O)[C@H]([C@@H](C)CC)N(C)C(=O)C2(CCCC2)NC(=O)[C@H](Cc2cccc(C)c2)N(C)C(=O)[C@H](CCc2ccc(C(F)(F)F)c(Cl)c2)NC(=O)CN(C)C(=O)[C@H](Cc2ccc(C)cc2)N(C)C(=O)[C@@H]2CCN2C(=O)[C@H](C)N(C)C1=O [Compound 912] ([NMeL]I[NMeA][Aze][NMePhe(4-Me)][Sar][hPhe(3-Cl-4-CF3)][NMePhe(3-Me)][Ac5c][NMeI][NMeD]-NMe2; lactam N-11) | 12 | 50 to 100 |
| CC[C@H](C)[C@@H]1NC(=O)[C@H](CC(C)C)N(C)C(=O)C[C@@H](C)NC(=O)[C@H](C(C)C)N(C)C(=O)C2(CCCC2)NC(=O)[C@@H]2CCCN2C(=O)[C@H](CCc2ccc(C(F)(F)F)c(Cl)c2)NC(=O)CN(C)C(=O)[C@H](Cc2ccc(C(F)(F)F)cc2)N(C)C(=O)CN(C)C(=O)CN(C)C1=O [Compound 1620] (cyclo([Ac5c][NMeV][d(β3hA)][NMeL]I[Sar][Sar][NMePhe(4-CF3)][Sar][hPhe(3-Cl-4-CF3)]P)) | 5.4 | 50 to 100 |
| CC[C@H](C)[C@@H]1NC(=O)[C@H](CC(C)C)N(C)C(=O)C[C@@H](C(=O)N(C)C)N(C)C(=O)[C@H](C2CCCC2)N(C)C(=O)C2(CCCC2)NC(=O)[C@H](Cc2ccncc2)N(C)C(=O)[C@H](CCc2ccc(C(F)(F)F)c(Cl)c2)NC(=O)CN(C)C(=O)[C@H](CC2CCCCC2)N(C)C(=O)[C@@H]2CCN2C(=O)[C@H](C)N(C)C1=O [Compound 1913] ([NMeL]I[NMeA][Aze][NMeCha][Sar][hPhe(3-Cl-4-CF3)][NMe4Pal][Ac5c][NMeGly(cPent)][NMeD]-NMe2; lactam N-11) | 1.1 | 100 to 500 |
| CC[C@H](C)[C@@H]1NC(=O)[C@H](CC(C)C)N(C)C(=O)C[C@@H](C(=O)N2CCCCC2)N(C)C(=O)[C@H](C2CCCCC2)N(C)C(=O)[C@](C)(CC)NC(=O)[C@@H]2CCCN2C(=O)[C@H](CCc2ccc(C(F)(F)F)c(Cl)c2)NC(=O)CN(C)C(=O)[C@H](CC2CCCCC2)N(C)C(=O)CN(C)C(=O)CN(C)C1=O [Compound 1302] ([NMeL]I[Sar][Sar][NMeCha][Sar][hPhe(3-Cl-4-CF3)]P[Iva][NMeChg][NMeD]-Piperidide; lactam N-11) | 0.75 | 100 to 500 |
| CC[C@H](C)[C@@H]1NC(=O)[C@H](CC(C)C)N(C)C(=O)C[C@@H](C)NC(=O)[C@H](C2CCCC2)N(C)C(=O)C2(CCCC2)NC(=O)[C@@H]2CCCN2C(=O)[C@H](CCc2ccc(C(F)(F)F)c(Cl)c2)NC(=O)CN(C)C(=O)[C@H](Cc2ccc(C)cc2)N(CC)C(=O)[C@@H]2CCN2C(=O)[C@H](C)N(C)C1=O [Compound 1714] (cyclo([Ac5c][NMeGly(cPent)][d(β3hA)][NMeL]I[NMeA][Aze][NEtPhe(4-Me)][Sar][hPhe(3-Cl-4-CF3)]P)) | 2.3 | 50 to 100 |
| CC[C@H](C)[C@@H]1NC(=O)[C@H](CC(C)C)N(C)C(=O)C[C@@H](C(=O)N2CCCC2)N(C)C(=O)[C@H](C2CCCCC2)N(C)C(=O)C2(CCCC2)NC(=O)[C@@H]2CCCN2C(=O)[C@H](CCc2ccc(C(F)(F)F)c(Cl)c2)NC(=O)CN(C)C(=O)[C@H](Cc2ccc(C)cc2)N(C)C(=O)CN(C)C(=O)CN(C)C1=O [Compound 1658] ([NMeL]I[Sar][Sar][NMePhe(4-Me)][Sar][hPhe(3-Cl-4-CF3)]P[Ac5c][NMeChg][NMeD]-Pyrrolidide; lactam N-11) | 0.55 | 20 to 50 |
| CC[C@H](C)[C@@H]1NC(=O)[C@H](C)N(C)C(=O)C[C@@H](C(=O)N2CCCCC2)N(C)C(=O)[C@H](C2CCCCC2)N(C)C(=O)C2(CCCC2)NC(=O)[C@@H]2CCCN2C(=O)[C@H](CCc2ccc(C(F)(F)F)c(Cl)c2)NC(=O)CN(C)C(=O)[C@H](CC2CCCCC2)N(C)C(=O)CN(C)C(=O)CN(C)C1=O [Compound 1696] ([NMeA]I[Sar][Sar][NMeCha][Sar][hPhe(3-Cl-4-CF3)]P[Ac5c][NMeChg][NMeD]-Piperidide; lactam N-11) | 0.57 | 50 to 100 |
| CCCCOc1cc(CC[C@@H]2NC(=O)CN(C)C(=O)[C@H](CC3CCCCC3)N(C)C(=O)CN(C)C(=O)CN(C)C(=O)[C@H]([C@@H](C)CC)NC(=O)[C@H](C)N(C)C(=O)C[C@@H](C(=O)N3CCCCC3)N(C)C(=O)[C@H](C(C)C)N(C)C(=O)C3(CCCC3)NC(=O)[C@@H]3CCCN3C2=O)cc(Cl)c1Cl [Compound 2083] ([NMeA]I[Sar][Sar][NMeCha][Sar][X28]P[Ac5c][NMeV][NMeD]-Piperidide; lactam N-11) | 52 | > 500 |
| CC[C@H](C)[C@@H]1NC(=O)[C@H](CC(C)C)N(C)C(=O)C[C@@H](C(=O)N2CCCC2)N(C)C(=O)[C@H]([C@@H](C)CC)N(C)C(=O)C2(CCCC2)NC(=O)[C@@H]2CCCN2C(=O)[C@H](CCc2ccc(C(F)(F)F)c(Cl)c2)NC(=O)CN(C)C(=O)[C@H](Cc2ccc(C)cc2)N(C)C(=O)CN(C)C(=O)CN(C)C1=O [Compound 1790] ([NMeL]I[Sar][Sar][NMePhe(4-Me)][Sar][hPhe(3-Cl-4-CF3)]P[Ac5c][NMeI][NMeD]-Pyrrolidide; lactam N-11) | 0.7 | 20 to 50 |
